# Laboratory results from patent publication US11230526B1, “Cylcoalkenyl derivatives useful as agonists of the GPR120 and/or GPR40 receptors” (Janssen Pharmaceutica NV, priority 2018, dated 2022).
# pEC50: −log10 of the molar value.
# Tests used:
# [1] = target: T1, long form of human GPR120 (Homo sapiens, UniProt Q5NUL3); experiment: Human GPR120 DiscoveRx PathHunter Beta-Arrestin assay, Procedure β-arrestin A; type: cell-based
# T1 construct: host or cells: PathHunter CHO-K1 GPR120 β-Arrestin Cell Line
# T1 sequence (Q5NUL3 1-377 isoform Q5NUL3-1): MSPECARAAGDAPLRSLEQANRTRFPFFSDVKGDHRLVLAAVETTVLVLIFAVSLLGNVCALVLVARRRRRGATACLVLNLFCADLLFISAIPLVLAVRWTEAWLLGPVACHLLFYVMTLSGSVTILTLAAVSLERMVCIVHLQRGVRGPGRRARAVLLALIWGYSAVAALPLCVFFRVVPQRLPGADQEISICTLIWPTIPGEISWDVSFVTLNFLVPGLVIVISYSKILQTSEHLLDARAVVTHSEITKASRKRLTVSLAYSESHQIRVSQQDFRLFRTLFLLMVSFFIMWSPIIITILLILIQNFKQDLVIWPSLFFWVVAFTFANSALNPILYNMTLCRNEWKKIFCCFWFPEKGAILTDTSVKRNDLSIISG
# T1 sequence (P32121 whole entry partner): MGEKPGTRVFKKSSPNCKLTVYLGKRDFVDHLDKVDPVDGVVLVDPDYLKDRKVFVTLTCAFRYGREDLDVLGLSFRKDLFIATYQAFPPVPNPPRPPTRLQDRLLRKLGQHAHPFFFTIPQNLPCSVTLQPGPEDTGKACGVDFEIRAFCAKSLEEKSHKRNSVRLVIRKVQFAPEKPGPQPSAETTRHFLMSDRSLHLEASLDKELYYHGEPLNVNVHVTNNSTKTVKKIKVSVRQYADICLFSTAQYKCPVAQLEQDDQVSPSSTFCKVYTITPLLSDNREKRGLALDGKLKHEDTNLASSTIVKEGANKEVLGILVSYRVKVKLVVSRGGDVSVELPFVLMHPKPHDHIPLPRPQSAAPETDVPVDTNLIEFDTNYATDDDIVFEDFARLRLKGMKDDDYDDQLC
# Source text: Human GPR120 DiscoveRx PathHunter® Beta-Arrestin Assay Assay Principle:
# The binding of an agonist (medium/long chain fatty acids or small molecule agonists) to the G-protein-coupled receptor GPR120 activates phospholipase C, leading to release of intracellular Ca^+2 through the generation of inositol 1,4,5-trisphosphate (InsP3 or IP3). GPR120 activation can also trigger intracellular signaling via recruitment of Beta-Arrestin. In the present method, agonist-induced activation of the human GPR120 receptor is monitored through the use of PathHunter® CHO-K1 GPR120 Beta-Arrestin Cell Line engineered by DiscoveRx, as detailed below. The cell lines are designed to co-express both the ProLink/Enzyme Donor (PK)-tagged GPCR and the Enzyme […] (EA)-tagged Beta-Arrestin fusion proteins. Upon GPR120 receptor stimulation/activation, the EA-tagged Beta-Arrestin portion is translocated to the tagged receptor, where the two enzyme fragments are brought within close proximity. Under these conditions, these fragments can interact and form an active Beta-gal enzyme complex through Enzyme Fragment Complementation (EFC). This active Beta-gal complex can enzymatically hydrolyse the substrate to produce a detectable light signal; therefore, activation as a function of agonist concentration can be expressed as an EC50 value to determine relative compound activities. This in vitro assay therefore serves to assess compound agonist activity of the GPR120.
# In Procedure β-arrestin A, the cell used were PathHunter® CHO-K1 GPR120 β-Arrestin Cell Line, expressing the long form of human GPR120 (Genbank accession number NM_181745), with 3000 cells per well.
# The selected CHO-K1 GPR120 β-Arrestin cells were cultured in Ham's F12 media supplemented with 10% fetal bovine serum (FBS), 1% Glutamine, 1×p/s, 800 μg/mL G418 and 300 μg/mL Hygromycin B (for selection). Cell stocks were maintained and grown in a sub-confluent state using standard cell culture procedures. The day before the experiment, the cells were harvested with non-enzymatic cell dissociation buffer and re-suspended in complete growth media at the desired concentration. A Corning 384-plate was then seeded with the proper number of cells in a volume of 25 μL, per well. The seeded plates were incubated overnight at 37° C.
# On the day of the experiment, the Assay Buffer containing (a) HBSS with Ca^++ and Mg^++, (b) 20 mM HEPES, and (c) 0.1% BSA stabilizer (pH 7.4) was prepared. The growth medium was gently removed from the cell plates and 20 μL of Assay Buffer added to each well. The plate was then incubated at 37° C. for 60 min. Test compounds were serially diluted in Assay Buffer to desired concentrations (more particularly to one or more of the following μM concentrations: 25, 12.5, 6.25, 3.12, 1.56, 0.78, 0.39, 0.19, 0.10, 0.05, 0.02, 0.01). Five μL of compound dilution was then added to each well and the plate incubated at 37° C. for 90 min. The detection reagents were prepared according to the manufacture's instruction. Twelve μL of the detection reagents were added to each well and the plate incubated at room temperature for 60 min.
# The plates were read on an EnVision instrument, using Protocol name: Luminescence, Plate type: 384 Costar, Measurement height: 3 mm, Measurement time: 1 s, Aperture: 384 Plate aperture. The % Activity relative to the positive control was calculated using the following equation:
# The % Activity values were plotted versus the concentration of test compound and fitted to a sigmoidal dose-response curve with a Hill slope=1 (fixed value) using nonlinear regression with GraphPad Prism 5.0 to calculate the EC50 values. The Fitting Equation was: Y=Bottom+(Top-Bottom)/(1+10^((Log EC50−X)*HillSlope)), where X is the log of the concentration and Y is the response.
# [2] = target: T2, Human GPR120 short form (Homo sapiens, UniProt Q5NUL3); experiment: Human GPR120 calcium flux assay, Procedure Calcium B (4200 cells/well); type: cell-based
# T2 construct: expressed in transfected cells
# T2 sequence (Q5NUL3 1-361): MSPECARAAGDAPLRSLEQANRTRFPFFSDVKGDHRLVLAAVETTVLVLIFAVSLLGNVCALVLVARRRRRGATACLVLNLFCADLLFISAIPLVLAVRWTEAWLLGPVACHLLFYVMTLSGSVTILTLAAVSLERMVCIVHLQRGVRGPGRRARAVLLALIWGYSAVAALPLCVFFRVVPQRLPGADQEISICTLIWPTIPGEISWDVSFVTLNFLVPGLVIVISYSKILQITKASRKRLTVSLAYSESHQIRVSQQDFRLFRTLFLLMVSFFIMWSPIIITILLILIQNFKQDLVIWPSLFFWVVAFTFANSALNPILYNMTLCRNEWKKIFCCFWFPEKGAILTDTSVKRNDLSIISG
# Procedure, shortened: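 HEK293 cells stably expressing human GPR120 (NM_001195755.1), 4200 cells/well, starved 1 h and loaded with Fluo-4 NW plus probenecid. Ligand-evoked calcium flux read on FLIPR for 300 s after a 10 s baseline. RFU = Fmax−Fmin; EC50 from four-parameter concentration-response fit.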
Compound,pEC50 [1],pEC50 [2]
"Cc1ccc(C2=C(COc3ccc(CCC(=O)O)cc3Br)CCC2)cc1 [Compound 169, 3-[3-bromo-4-[[2-(p-tolyl)cyclopenten-1-yl]methoxy]phenyl]Propanoic Acid]",7.46,7.31
"Cc1c(CCC(=O)O)ccc(OCC2=C(c3ccc(Cl)c(F)c3)CC(F)(F)C2)c1C [Compound 171, 3-[4-[[2-(4-chloro-3-fluoro-phenyl)-4,4-difluoro-cyclopenten-1-yl]methoxy]-2,3-dimethyl-phenyl]Propanoic Acid]",6.68,6.97
"Cc1c(CCC(=O)O)ccc(OCC2=C(c3ccc(F)c(F)c3)CC(F)(F)C2)c1C [Compound 177, 3-[4-[[2-(3,4-difluorophenyl)-4,4-difluoro-cyclopenten-1-yl]methoxy]-2,3-dimethyl-phenyl]Propanoic Acid]",7.14,7.28
"COC1CC(COc2ccc(CCC(=O)O)c(C)c2C)=C(c2ccc(Cl)cc2)C1 (stereo not shown) [Compound 189, 3-[4-[[2-(4-chlorophenyl)-4-methoxy-cyclopenten-1-yl]methoxy]-2,3-dimethyl-phenyl]Propanoic Acid]",6.61,7.20
"Cc1cc(CCC(=O)O)ccc1OCC1=C(c2cncs2)CC(F)(F)C1 [Compound 190, 3-[4-[(4,4-difluoro-2-thiazol-5-yl-cyclopenten-1-yl)methoxy]-3-methyl-phenyl]Propanoic Acid]",5.98,6.35
"Cc1c(CCC(=O)O)ccc(OCC2=C(c3cccc(F)c3)CC(F)(F)C2)c1C [Compound 192, 3-[4-[[4,4-difluoro-2-(3-fluorophenyl)cyclopenten-1-yl]methoxy]-2,3-dimethyl-phenyl]Propanoic Acid]",6.49,7.21
"Cc1c(CCC(=O)O)ccc(OCC2=C(c3ccccc3)CC(F)(F)C2)c1C [Compound 194, 3-[4-[(4,4-difluoro-2-phenyl-cyclopenten-1-yl)methoxy]-2,3-dimethyl-phenyl]Propanoic Acid]",6.79,7.44
"Cc1c(CCC(=O)O)ccc(OCC2=C(c3ccc(Cl)cc3)CC(Cl)C2)c1C (stereo not shown) [Compound 195, 3-[4-[[4-chloro-2-(4-chlorophenyl)cyclopenten-1-yl]methoxy]-2,3-dimethyl-phenyl]Propanoic Acid]",6.33,6.64
"Cc1c(CCC(=O)O)ccc(OCC2=C(c3ccc(Cl)cc3)CC(C#N)C2)c1C (stereo not shown) [Compound 196, 3-[4-[[2-(4-chlorophenyl)-4-cyano-cyclopenten-1-yl]methoxy]-2,3-dimethyl-phenyl]Propanoic Acid]",6.00,6.13
"Cc1c(CCC(=O)O)ccc(OCC2=C(c3cccs3)CC(F)(F)C2)c1C [Compound 200, 3-[4-[[4,4-difluoro-2-(2-thienyl)cyclopenten-1-yl]methoxy]-2,3-dimethyl-phenyl]Propanoic Acid]",6.36,6.74
"O=C(O)CCc1cc(F)c(OCC2=C(c3cccs3)CC(F)(F)C2)c(F)c1 [Compound 201, 3-[4-[[4,4-difluoro-2-(2-thienyl)cyclopenten-1-yl]methoxy]-3,5-difluoro-phenyl]Propanoic Acid]",6.39,6.10
"Cc1cc(CCC(=O)O)ccc1OCC1=C(c2cccs2)CC(F)(F)C1 [Compound 202, 3-[4-[[4,4-difluoro-2-(2-thienyl)cyclopenten-1-yl]methoxy]-3-methyl-phenyl]Propanoic Acid]",6.52,6.94
"Cc1c(CCC(=O)O)ccc(OCC2=C(c3ccc(Cl)c(F)c3)CCC(F)(F)C2)c1C [Compound 526, 3-[4-[[2-(4-chloro-3-fluoro-phenyl)-5,5-difluoro-cyclohexen-1-yl]methoxy]-2,3-dimethyl-phenyl]Propanoic Acid]",5.42,6.06
"Cc1cc(CCC(=O)O)ccc1OCC1=C(c2ccc(Cl)c(F)c2)CCC(F)(F)C1 [Compound 527, 3-[4-[[2-(4-chloro-3-fluoro-phenyl)-5,5-difluoro-cyclohexen-1-yl]methoxy]-3-methyl-phenyl]Propanoic Acid]",6.30,6.05
"Cc1c(CCC(=O)O)ccc(OCC2=C(c3ccc(F)c(F)c3)CCC(F)(F)C2)c1C [Compound 531, 3-[4-[[2-(3,4-difluorophenyl)-5,5-difluoro-cyclohexen-1-yl]methoxy]-2,3-dimethyl-phenyl]Propanoic Acid]",6.54,6.93
"Cc1cc(CCC(=O)O)ccc1OCC1=C(c2ccccc2)CCC(F)(F)C1 [Compound 538, 3-[4-[(5,5-difluoro-2-phenyl-cyclohexen-1-yl)methoxy]-3-methyl-phenyl]Propanoic Acid]",6.80,7.05
"COC1CCC(c2ccc(Cl)cc2)=C(COc2ccc(CCC(=O)O)c(C)c2C)C1 (stereo not shown) [Compound 540, 3-[4-[[2-(4-chlorophenyl)-5-methoxy-cyclohexen-1-yl]methoxy]-2,3-dimethyl-phenyl]Propanoic Acid]",6.65,6.82
"Cc1c(CCC(=O)O)ccc(OCC2=C(c3cnn(C)c3)CCC(F)(F)C2)c1C [Compound 545, 3-[4-[[5,5-difluoro-2-(1-methylpyrazol-4-yl)cyclohexen-1-yl]methoxy]-2,3-dimethyl-phenyl]Propanoic Acid]",5.78,6.01
"Cc1c(CCC(=O)O)ccc(OCC2=C(c3cncs3)CCC(F)(F)C2)c1C [Compound 547, 3-[4-[(5,5-difluoro-2-thiazol-5-yl-cyclohexen-1-yl)methoxy]-2,3-dimethyl-phenyl]Propanoic Acid]",5.74,6.41
"Cc1c(CCC(=O)O)ccc(OCC2=C(c3ccco3)CCC(F)(F)C2)c1C [Compound 552, 3-[4-[[5,5-difluoro-2-(2-furyl)cyclohexen-1-yl]methoxy]-2,3-dimethyl-phenyl]Propanoic Acid]",6.32,6.81
"Cc1ncc(C2=C(COc3c(F)cc(CCC(=O)O)cc3F)CC(F)(F)CC2)s1 [Compound 554, 3-[4-[[5,5-difluoro-2-(2-methylthiazol-5-yl)cyclohexen-1-yl]methoxy]-3,5-difluoro-phenyl]Propanoic Acid]",5.99,6.14
"Cc1cc(CCC(=O)O)ccc1OCC1=C(c2ccco2)CCC(F)(F)C1 [Compound 555, 3-[4-[[5,5-difluoro-2-(2-furyl)cyclohexen-1-yl]methoxy]-3-methyl-phenyl]Propanoic Acid]",6.45,6.79
"Cc1c(CCC(=O)O)ccc(OCC2=C(c3cccs3)CCC(F)(F)C2)c1C [Compound 557, 3-[4-[[5,5-difluoro-2-(2-thienyl)cyclohexen-1-yl]methoxy]-2,3-dimethyl-phenyl]Propanoic Acid]",6.52,6.83
